Test results taken from PMC6387142, “Multi-Residue Method for the Analysis of Stilbene Estrogens in Milk” (International Journal of Molecular Sciences, 2019).

Target: T1, estrogen receptor α ligand binding domain (ER-LBD) (Homo sapiens, UniProt P03372)
T1 construct: gene ESR1
T1 sequence (P03372 311-547 limits assumed): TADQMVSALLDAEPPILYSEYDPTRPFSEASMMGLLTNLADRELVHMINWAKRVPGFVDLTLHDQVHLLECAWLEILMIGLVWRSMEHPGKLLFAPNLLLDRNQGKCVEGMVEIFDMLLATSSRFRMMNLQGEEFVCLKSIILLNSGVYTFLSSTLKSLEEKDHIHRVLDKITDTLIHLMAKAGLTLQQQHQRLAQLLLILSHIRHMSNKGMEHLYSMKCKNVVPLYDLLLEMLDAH
Test: competitive fluorescence polarization, displacement of coumestrol from purified ER-LBD

## CC[C@H](c1ccc(O)cc1)[C@@H](CC)c1ccc(O)cc1 [hexestrol]
  IC50: 9.27 nM

## C/C=C(/C(=C/C)c1ccc(O)cc1)c1ccc(O)cc1 [dienestrol]
  IC50: 12.9 nM
